From patent US9840509B2, “Heterocyclic compounds” (CADILA HEALTHCARE LIMITED, priority 2014, dated 2017)

How the values were obtained:
[1] = molecular target: T1, recombinant purified human BTK (Homo sapiens, UniProt Q06187); test: In vitro BTK kinase assay on ADP Glo platform; type: biochemical; conditions: 2 hr room temperature, read-out: In-vitro BTK inhibitory activity: IC50
T1 construct: purchased SignalChem, USA
Procedure, shortened: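 Recombinant human BTK (3 ng/reaction) with compound dilutions in Tris pH 7.5, MgCl2/MnCl2, BSA, DTT; started with 50 µM ATP (final) and polyGln4Tyr1 substrate, 2 h at room temperature. ADP formed detected by ADP-Glo luminescence; IC50 by nonlinear fit versus uninhibited enzyme as 100%.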

SCW Arthritis Model = test: SCW Arthritis model (PGPS-induced paw swelling); type: in vivo, Female Sprague dawley (SD) rats; conditions: Dose: 10 mpk, po, rats, Mean ± SD, n = 8
Procedure: All the animal experiments were carried out in female rats and mice, bred in-house. Animals were housed in groups of 6 animals per cage, for a week, in order to habituate them to vivarium conditions (25±4° C., 60-65% relative humidity, 12: 12 h light: dark cycle, with lights on at 7.30 am). All the animal experiments were carried out according to the internationally valid guidelines following approval by the ‘Zydus Research Center animal ethical committee’. SCW Arthritis Female Sprague dawley (SD) rats were primed with an intra-articular injection of 20 μl of peptidoglycan polysaccharide (PGPS), at 0.5 mg/ml of rhamnose in the right ankle. At 2 weeks the paw swelling were measured using a plethysmometer and rats assigned to groups based on initial paw swelling. On day 14 after model initiation, rats were dosed orally (po) with the test compounds. Following the dose administration, 1 h later, the rats received a booster dose of 0.5 ml of PGPS (0.5 mg/ml of rhamnose) via i.v. injection using their tail vein. Compounds were dosed for the following two more days and their paw volumes were measured for 3 more days. The efficacy of the compound was determined as percentage inhibition of paw swelling verses the control (untreated) group.

CIA Arthritis Model = test: Collagen induced arthritis (CIA) study in mice; type: in vivo; conditions: Dose: 10 mpk, po, Mean ± SD, n = 8
Procedure: All the animal experiments were carried out in female rats and mice, bred in-house. Animals were housed in groups of 6 animals per cage, for a week, in order to habituate them to vivarium conditions (25±4° C., 60-65% relative humidity, 12: 12 h light: dark cycle, with lights on at 7.30 am). All the animal experiments were carried out according to the internationally valid guidelines following approval by the ‘Zydus Research Center animal ethical committee’.
Protocol for Collagen Induced Arthritis (CIA) Study in Mice
CIA is a frequently used animal model of human RA (Courtenay, J. S., Dallman, M. J., Dayan, A. D., Martin, A. and Mosedale, B., Nature, 1980, 283, 666-668; Bevaart, L., Vervoordeldonk, M. J., Tak, P. P., Methods Mol. Biol., 2010, 602, 181-192). Following 7 days acclimation, mice were randomly assigned to groups according body weight. Mice were immunized subcutaneously in the tail using bovine type II collagen mix in complete Freund's adjuvant (CFA). Twenty-one days after the first immunization, mice were given booster dose of collagen in incomplete Freund's adjuvant (IFA). Mice were monitored every other day after the booster dose for the development of arthritis. Mice were recruited for the study once clinical signs were visible. Eight animals were assigned each of three groups [vehicle, positive control and test compounds] and treatment was continued for four weeks and percentage inhibition in clinical score is recorded as per graded score. Body weights of the animals were also recorded 3 times a week as a measure of treatment related side effect, paw thickness measured twice a week and blood serum are collected at termination for cytokines profile.

T1 sequence (Q06187 whole entry): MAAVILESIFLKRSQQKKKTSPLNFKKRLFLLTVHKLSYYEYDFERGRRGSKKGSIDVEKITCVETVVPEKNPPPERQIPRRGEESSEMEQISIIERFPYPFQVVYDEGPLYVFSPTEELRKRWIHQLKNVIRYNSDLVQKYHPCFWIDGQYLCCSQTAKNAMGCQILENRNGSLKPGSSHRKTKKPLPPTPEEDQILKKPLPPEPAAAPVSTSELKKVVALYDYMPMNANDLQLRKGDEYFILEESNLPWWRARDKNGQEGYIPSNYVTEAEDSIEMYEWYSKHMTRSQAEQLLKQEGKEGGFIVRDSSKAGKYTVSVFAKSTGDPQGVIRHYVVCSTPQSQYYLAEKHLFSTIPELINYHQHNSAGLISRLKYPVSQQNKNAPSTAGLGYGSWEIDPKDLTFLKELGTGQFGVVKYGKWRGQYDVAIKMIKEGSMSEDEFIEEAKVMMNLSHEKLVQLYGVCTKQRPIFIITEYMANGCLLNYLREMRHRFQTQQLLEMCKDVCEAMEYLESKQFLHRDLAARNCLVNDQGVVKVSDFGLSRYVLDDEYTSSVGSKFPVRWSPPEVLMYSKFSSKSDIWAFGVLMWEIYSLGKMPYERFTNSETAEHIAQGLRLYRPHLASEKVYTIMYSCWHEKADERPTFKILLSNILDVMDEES

IC50 [1] [nM]	Structure (SMILES)	% inhibition of paw inflammation, Day-16, in SCW Arthritis Model (SCW Arthritis Model) [%]	% inhibition of clinical score, Day-28, in CIA Arthritis Model (CIA Arthritis Model) [%]
4	C=CC(=O)N1CC2CC(n3nc(-c4ccc(NC(=O)c5ccccn5)cc4)c4c(N)ncnc43)CC2C1 (stereo not drawn) [Compound 32, N-(4-(1-(2-acryloyloctahydrocyclopenta[c]pyrrol-5-yl)-4-amino-1H-pyrazolo[3,4-d]pyrimidin-3-yl)phenyl)picolinamide]	75.3 ± 6.2	100 ± 3.9
5	C=CC(=O)N1CC2CC(N3C(=O)N(c4ccc(Oc5ccccc5)cc4)C4C(N)=NC=NC43)CC2C1 (stereo not drawn) [Compound 25, 9-(2-acryloyloctahydrocyclopenta[c]pyrrol-5-yl)-6-amino-7-(4-phenoxyphenyl)-5,7-dihydro-4H-purin-8(9H)-one]	69.6 ± 12.7	90.1 ± 6.3

More lines, now with the values behind:

Structure (SMILES)	IC50 [1] [nM]	% inhibition of paw inflammation, Day-16, in SCW Arthritis Model (SCW Arthritis Model) [%]	% inhibition of clinical score, Day-28, in CIA Arthritis Model (CIA Arthritis Model) [%]
C=CC(=O)N1CC2CC(n3nc(-c4ccc(-c5nnc(-c6cnccn6)s5)cc4)c4c(N)ncnc43)CC2C1 (stereo not drawn) [Compound 46, 1-(5-(4-amino-3-(4-(5-(pyrazin-2-yl)-1,3,4-thiadiazol-2-yl)phenyl)-1H-pyrazolo[3,4-d]pyrimidin-1-yl)hexahydrocyclopenta[c]pyrrol-2(1H)-yl)prop-2-en-1-one]	1	81.8 ± 11.2	88 ± 7.1
C=CC(=O)N1CC2CC(n3nc(-c4ccc(C(=O)Nc5cc(C)ccn5)cn4)c4c(N)ncnc43)CC2C1 (stereo not drawn) [Compound 42, 6-(1-(2-acryloyloctahydrocyclopenta[c]pyrrol-5-yl)-4-amino-1H-pyrazolo[3,4-d]pyrimidin-3-yl)-N-(4-methylpyridin-2-yl)nicotinamide]	0.1	51.3 ± 9.7	100 ± 4.2
C=CC(=O)N1CC2CC(n3nc(-c4ccc(C(=O)N(C)c5cc(C)ccn5)cc4)c4c(N)ncnc43)CC2C1 (stereo not drawn) [Compound 54, 4-(1-(2-acryloyloctahydrocyclopenta[c]pyrrol-5-yl)-4-amino-1H-pyrazolo[3,4-d]pyrimidin-3-yl)-N-methyl-N-(4-methylpyridin-2-yl)benzamide]	0.1	89.2 ± 10.3	98 ± 4.5
